# Experiments:
# [1] = biological target: T1, p38 MAP kinase (Homo sapiens, UniProt Q16539); test: p38 (MAP) kinase in vitro assay, transfer of γ-33P-phosphate from ATP to Myelin Basic Protein; format: biochemical; conditions: phosphorylated recombinant p38 MAP kinase, MBP substrate, γ-33P-ATP, 30° C.
# T1 construct: made in house; host or cells: E. coli (co-expressed with SEK-1 and MEKK)
# Method: This example illustrates a p38 (MAP) kinase in vitro assay useful for evaluating the compounds of the invention.
# The p38 MAP kinase inhibitory activity of compounds of this invention in vitro was determined by measuring the transfer of the γ-phosphate from γ-^33P-ATP by p-38 kinase to Myelin Basic Protein (MBP), using a minor modification of the method described in Ahn, et al., J. Biol. Chem. 266:4220-4227 (1991).
# The phosphorylated form of the recombinant p38 MAP kinase was co-expressed with SEK-1 and MEKK in E. Coli (see, Khokhlatchev, et al., J. Biol. Chem. 272:11057-11062 (1997)) and then purified by affinity chromatography using a Nickel column.
# The phosphorylated p38 MAP kinase was diluted in kinase buffer (20 mM 3-(N-morpholino)propanesulfonic acid, pH 7.2, 25 mM β-glycerol phosphate, 5 mM ethylene glycol-bis(beta-aminoethyl ether)-N,N,N′,N′-tetraacetic acid, 1 mM sodium ortho-vanadate, 1 mM dithiothreitol, 40 mM magnesium chloride). Test compound dissolved in DMSO or only DMSO (control) was added and the samples were incubated for 10 min at 30° C. The kinase reaction was initiated by the addition of a substrate cocktail containing MBP and γ-^33P-ATP. […] The phosphorylated MBP was then separated from the residual γ-^33P-ATP using a phosphocellulose membrane (Millipore, Bedford, Mass.) and quantitated using a scintillation counter (Packard, Meriden, Conn.).
# T1 sequence (Q16539 whole entry): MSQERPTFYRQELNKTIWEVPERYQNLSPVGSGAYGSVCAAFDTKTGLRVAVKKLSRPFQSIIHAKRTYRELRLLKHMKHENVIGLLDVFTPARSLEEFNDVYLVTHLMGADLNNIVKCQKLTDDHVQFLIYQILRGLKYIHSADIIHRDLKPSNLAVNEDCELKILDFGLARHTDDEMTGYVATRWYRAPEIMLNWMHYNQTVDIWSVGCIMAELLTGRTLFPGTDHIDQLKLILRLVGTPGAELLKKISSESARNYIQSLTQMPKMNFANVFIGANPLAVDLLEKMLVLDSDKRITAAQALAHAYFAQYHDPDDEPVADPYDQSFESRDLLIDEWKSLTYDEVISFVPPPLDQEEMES
Compound,IC50 [1],melting point
"C[C@H](O)CNc1nc(Oc2ccc(F)cc2F)nc2[nH]nc(-c3ccccc3Cl)c12 [Example 1, (S)-1-[3-(2-chlorophenyl)-6-(2,4-difluorophenoxy)-1H-pyrazolo[3,4-d]pyrimidin-4-ylamino]propan-2-ol]",,254.6 to 258.2 °C
"C[C@H](O)CNc1nc(Oc2ccc(F)cc2F)cc2[nH]nc(-c3ccccc3Cl)c12 [Example 9, (S)-1-[3-(2-Chloro-phenyl)-6-(2,4-difluoro-phenoxy)-1H-pyrazolo[4,3-c]pyridin-4-ylamino]-propan-2-ol]",,171.2 to 172 °C

# Other lines, results leading:
IC50 [1],melting point,Compound
4 nM,,"OC[C@@H](O)CNc1nc(Oc2ccc(F)cc2F)nc2[nH]nc(-c3ccccc3Cl)c12 [3-[3-(2-Chloro-phenyl)-6-(2,4-difluoro-phenoxy)-1H-pyrazolo[3,4-d]pyrimidin-4-ylamino]-propane-1,2-diol]"
,179.2 to 181.3 °C,"OC[C@H](O)COc1nc(Oc2ccc(F)cc2F)nc2[nH]nc(-c3ccccc3Cl)c12 [Example 5, (S)-3-[3-(2-Chloro-phenyl)-6-(2,4-difluoro-phenoxy)-1H-pyrazolo[3,4-d]pyrimidin-4-yloxy]-propane-1,2-diol]"
,237.9 to 238.5 °C,"C[C@H](O)CNc1cc(Oc2ccc(F)cc2F)nc2[nH]nc(-c3ccccc3Cl)c12 [Example 10, (S)-1-[3-(2-Chloro-phenyl)-6-(2,4-difluoro-phenoxy)-1H-pyrazolo[3,4-b]pyridin-4-ylamino]-propan-2-ol]"

# Source: patent publication US7435731B2, “Substituted pyrazolo[3,4-d]pyrimadines and methods of using the same” (Roche Palo Alto LLC, priority 2004, dated 2008)
